The data set in a line: Solubility in water (observation). The data set is classed as physicochemical. On the procedure: 4.0 g of levoleucovorin calcium (6.7 mmol) are suspended in 100 ml water. The slurry is heated up to about 40° C. to obtain a clear solution. 1.0 g of zinc acetate dihydrate (4.6 mmol) in 10 ml water is slowly added. A precipitate is formed immediately. After one day the precipitate is separated from the mother liquor.

Structures are written as SMILES.

For `Nc1nc2c(c(=O)[nH]1)N(C=O)[C@@H](CNc1ccc(C(=O)N[C@@H](CCC(=O)[O-])C(=O)[O-])cc1)CN2.[Zn+2]` [levoleucovorin zinc], the Solubility in water result was “almost insoluble in water”.

For the origin of these results see patent US9301922B1, “Stable high strength pharmaceutical composition of levoleucovorin” (APROFOL AG, priority 2013, dated 2016).
